According to a melting point compilation (Tetko et al.; mined from patent text by program, amines drawn as free bases though some values may be those of a salt):

SMILES | melting point
Cc1nc(=O)n(C)cc1Cl | 132 to 134 °C
CCCCCCCCCCCCCCCCOc1ccc(OCC(=O)Nc2cccc(CBr)c2)cc1 | 183 to 186 °C
CS(=O)(=O)NC1CCN(c2ccc(C#N)c3ccccc23)C1 (stereo not given) | 128 to 129 °C
CCOC(=O)CC[C@H](NC(=O)c1ccc(CCC2CNc3nc(NC(=O)C(C)(C)C)nc(O)c3C2)cc1)C(=O)OCC (stereo not given in full) | > 250 °C
COC(=O)C=C1CN=C(c2ccccc2F)c2cc(Cl)ccc2N1 | 158 to 160 °C
N#CC(C#N)=C(NCC(=O)O)Nc1cc(Cl)cc(Cl)c1 | 103 °C
BrCc1c(Br)c(CBr)c(Br)c(CBr)c1Br | 220 to 223 °C
CCC(C)N1CCc2c(C(=O)O)nc3c(C#N)cnn3c21 (stereo not given) | 191 to 192 °C
Cc1cn2c(n1)CN=C(c1ccccc1Cl)c1cc(Cl)ccc1-2 | 170 °C
COc1cc2c(cc1OC)N(Cc1ccccc1)C(=O)CN=C2c1cccc(C(F)(F)F)c1 | 175 to 178 °C
CC(=CC(=O)c1cccnc1)N1CCCC1 | 116 to 118 °C
Cc1nnnn1C(C=CC=O)=C(c1ccc(F)cc1)c1ccc(F)cc1 | 72 to 78 °C
COc1cccc2c1CC1c3c(cc(OC)c(OC)c3-2)CCN1C (stereo not given) | 184 to 185 °C
C=CCn1c(=O)n(-c2cccc(C)n2)c2ncccc21 | 111 to 112 °C
COc1cc2nc(N3CCN(C(=O)C=Cc4ccc(OC)c(OC)c4OC)CC3)nc(N)c2cc1OC | 263 to 264 °C
Cc1cc(-c2nc3ccccc3[nH]2)n[nH]1 | 322 to 324 °C
Nc1ccc(-c2cnc(COCc3cc4ccccc4o3)o2)cc1 | 96 to 98 °C
O=C(O)CCCCCCN(Cc1ccccc1)C(=O)c1cn2c3c(cccc13)CCC2 | 45 to 47 °C
O=C(O)CSCCSc1cc(-c2ccccc2)c(O)c(-c2ccccc2)c1 | 125 °C
N#Cc1cnc2ccsc2c1Cl | 105 to 107 °C
CCc1nc2cnc3ccccc3c2n1CCCCNS(C)(=O)=O | 166 to 168 °C
CC1C(=O)NC(=O)N(Cc2ccccc2)C1=O (stereo not given) | 128 to 129 °C
CC1(C(O)(C=Cc2ccc(Cl)cc2Cl)Cn2ccnc2)COCOC1 (stereo not given) | 142 to 144 °C

SMILES | melting point
COc1cc(Nc2c(C#N)cnc3cc(-c4coc(C=O)c4)c(OC)cc23)c(Cl)cc1Cl | 238 to 241 °C
O=c1c(C2=Nc3ccccc3S(=O)(=O)N2)c(O)c2ccccc2n1CCCCO | 238 to 240 °C
CSC(=C[N+](=O)[O-])NCCCCc1csc(N(CC(F)(F)F)C(=N)N)n1 | 140 to 141 °C
N#Cc1ccc(OS(N)(=O)=O)cc1 | 154 to 156 °C
COC(=O)CCCOc1cccc(CNC(=O)C2Cc3ccccc3N2S(=O)(=O)c2ccc(-c3cccc(C(F)(F)F)c3)cc2)c1 (stereo not given) | 50 °C
O=C1Nc2cccnc2N(C(=O)CN2CCC(CCCN3CCCCC3)CC2)c2ccccc21 | 202 to 203 °C
CCCCOCCOc1ccc(-c2ccc(-n3cccn3)c(C=C(C)C(=O)O)c2)cc1 | 132 to 134 °C
Cc1cccc(C)c1N(C(C)CCl)S(C)(=O)=O (stereo not given) | 126 to 128 °C
CC(=Cc1cccc([N+](=O)[O-])c1)C(=O)O | 201 to 202 °C
COc1ccc(C(=O)C(Cl)=NO)cc1 | 118 to 125 °C
COc1ccc(COc2ccc(CC(=O)O)cc2Cl)cc1Cl | 150 to 151 °C
COc1ccc(Oc2ccc(F)cc2)cc1C#CC(C)N(O)C(N)=O (stereo not given) | 141 to 142 °C
CCN1CCc2sc3ncn(CCCl)c(=O)c3c2C1 | 94 to 96 °C
CSc1nnc(-c2cc3c([nH]c2=O)CCN(Cc2ccccc2)C3)o1 | 215 to 217 °C
CCC1(O)CCC2C3=C(CCC21C)c1ccc(OC)cc1CC3 (stereo not given) | 105 to 120 °C
C#CCN(Cc1cc2c(=O)n(C)c(CN3CCN(c4ccccc4)CC3)nc2cc1Cl)c1ccc(C(=O)OC(C)(C)C)cc1 | > 95 °C
COc1c(-c2ccc3cc(NS(C)(=O)=O)ccc3c2)cc(-c2ccc[nH]c2=O)cc1C(C)(C)C | > 300 °C
Cc1cc(Cl)ccc1OCC(=O)N1Cc2ccc(C(=O)c3ccc(C(C)(C)C)cc3)n2Cc2ccccc21 | 168 °C
COc1cc(OC)nc(-n2c(S(C)(=O)=O)nc3ccccc32)n1 | 114 to 117 °C
COc1cc(C(=O)CCCc2ccccc2)ccc1O | 91 to 92 °C
CCOc1cc2c(cc1OCC)C(C(C#N)SCCCO)=NCC2 (stereo not given) | 100 to 105 °C
CCSc1cc(C)nc(SCC)c1NC(=O)CCCCCCCSc1nc2cccc(C(F)(F)F)c2o1 | 99 to 100 °C
Cn1c(C(N)=O)c2n(c1=O)-c1ccc(Cl)cc1C(c1ccccc1Cl)=NC2 | 158 to 160 °C

SMILES | melting point
CC(C)(C)C(=O)OCN1C(=O)CN(CCN2CC(=O)N(COC(=O)C(C)(C)C)C(=O)C2)CC1=O | 114 to 118 °C
CCCCCCC(=N)NC(=S)Nc1ccc(Br)cc1Br | 86 to 88 °C
CC(C)(CCC#N)c1ccc(C(=O)Nc2cn3cc(C(F)(F)F)ccc3n2)cc1 | 233 to 234 °C
CCc1cc2c(ccc(=O)n2Cc2ccc(Oc3ccccc3CC(=O)O)cc2)c(CC)n1 | 211 to 215 °C
CCc1cc(=O)oc2cc(O)cc(O)c12 | 241 to 243 °C
O=C1COc2cc(F)c(F)cc2N1 | 214 to 219 °C
Cc1c(Cl)nn(-c2ccc(Cl)cc2)c1Cl | 90 to 91.5 °C
CC(=O)OCCCCN1CCC(CNC(=O)[C@@H]2CCCN2S(=O)(=O)c2ccc(Cl)c(COc3cccc4c(-n5ccnc5)cc(C)nc34)c2Cl)CC1 | 86 °C
CC(NC(=O)CCc1ccc(C(C)(C)C)cc1)c1ccc(NS(C)(=O)=O)c(F)c1 (stereo not given) | 152 to 154 °C
Cc1cc2oc(=O)c3c(c2cc1C)CCN(CC(C)N(C)C)C3 (stereo not given) | 105 to 107 °C
COCCNCC(O)c1ccccc1 (stereo not given) | 77 to 80 °C
O=c1[nH]cnc2c1ncn2CCO | 274 °C
COc1cc[nH]c1C=C1C(=O)Nc2cccc(C#CC(O)c3ccc(OCC(=O)OC(C)(C)C)cc3)c21 (racemic) | 173 to 175 °C
CC(C)N(CCN1C(=O)C(=O)c2ccccc21)C(C)C | 60 to 61 °C
O=C(O)c1cccc(-c2ccnc3cc(Cc4cccc(C(F)(F)F)c4)nn23)c1 | 111 to 145 °C
Cc1cc(C)c(C(C)(C#N)c2nc(C)nc(Cl)c2C)c(C)c1 (stereo not given) | 181 to 183 °C
COc1cc(OC)c2c(=O)[nH]c(-c3ccc(N4C[C@@H](C)N(C(C)=O)[C@@H](C)C4)cc3)nc2n1 | 279 to 280 °C
COc1ccc(N(C(=O)CN2C(=O)C(Cc3n[nH]c4ccccc34)C(=O)N(c3cccnc3)c3ccccc32)C(C)C)cc1 (single isomer, unassigned; (+)) | 214 to 215 °C
O=C(O)C1=Cc2cc(Cl)cc(I)c2OC1C(F)(F)F (stereo not given) | 220 to 223 °C
CCCCOC(=O)[C@H]1CN(c2ccc(N3CCSCC3)cc2)C(=O)O1 | 95.5 to 98 °C
CN(C)C=Nc1sc(C=O)c(Br)c1C#N | 220 °C

Now from value to compound:

melting point | SMILES
82.9 to 83.9 °C | Cc1cn(Cc2ccccc2[N+](=O)[O-])c(=O)o1
134 to 135 °C | CC1CCN(C)c2nc(O)ccc21 (stereo not given)
113 to 115 °C | COc1c(-c2ccc(S(C)(=O)=O)cc2)cnn(-c2ccc(F)c(F)c2)c1=O
63 to 70 °C | NC=C(C=O)c1cccc(C(F)(F)F)c1
180 to 184 °C | O=C(CCCCl)Nc1cccc(Cc2n[nH]c(=O)c3ccccc23)c1
117 to 118 °C | CC(C)(CCCc1cccnc1)NC(=O)Cc1ccccc1[N+](=O)[O-]
163 to 165 °C | CCOC(=O)n1nc2cc(Cl)ccc2c1N
192 °C | CC1=C(C#N)C(c2cncc3ncc(-c4ccccc4)cc23)C(C(=O)OC(C)C)=C(C)N1 (stereo not given)
127 to 128 °C | CCSc1cc(C)nc(SCC)c1NC(=O)CCCCCCSc1nc2cccc(C(F)(F)F)c2o1
202 °C | CC12CCC(=O)NC1=CCc1cc(F)ccc12 (stereo not given)
102 to 105 °C | O=C1N(Cn2nc3ccccc3n2)c2ccccc2C12COc1cc3c(cc12)CCO3 (stereo not given)
223 to 225 °C | CC(C)Cn1c(CN(C)C(N)=O)nc2c(N)nc3ccccc3c21
239 to 240 °C | CCc1ccc(Nc2nc3cc(NC(=O)c4ccccc4)ccc3o2)cc1
120 to 122 °C | O=C(OCc1ccc(C(F)(F)F)cc1)N1CCN(CC2Cn3cc([N+](=O)[O-])nc3O2)CC1 (stereo not given)
123 to 125 °C | CCn1ccnc1S(N)(=O)=O
156 to 157 °C | C=C(C(=O)c1ccc(C(=O)O)cc1)c1cc(OC)c(OC)c(-c2cccs2)c1
106 to 108 °C | CCCCN1CCC(n2nc(-c3c(-c4ccccc4)nn4ccccc34)ccc2=O)CC1

melting point | SMILES
69 to 71 °C | CCCCCCCCCCC(=O)Nc1cc(F)cc2c1OCCC21SC(=O)NC1=O (stereo not given)
91 to 93 °C | O=C(O)CCCC#CCNS(=O)(=O)c1ccc(Cl)cc1
56 to 58 °C | Oc1c(CN2CCCC2)cc(Nc2ccnc3cc(C(F)(F)F)ccc23)cc1CN1CCCC1
119 °C | CCc1nn(-c2ccccc2)nc1C(C#N)C(=O)c1c(C)c(C)nn1C (stereo not given)
150 to 153 °C | Cc1cc(O)c(S(=O)Cc2ccccc2)c(=O)o1 (stereo not given)
187 to 188 °C | Nc1ccc(Oc2ccc(C(=O)O)c(O)c2)cc1
130 to 131 °C | COc1cc(N)c(Cl)cc1C(=O)NCC1CCN(CCCCCC(=O)c2ccc(C)cc2)CC1
175 to 177 °C | COc1ccc(C(=O)Nc2ccccc2)cc1NCc1cc(F)cc(F)c1
93 to 95 °C | Cc1ccc(CN(C)C(=O)C23CC4CC(CC(C4)C2)C3)cc1
69 to 70 °C | CCCn1cnc2c1c(=O)n(CCCCCC(C)=O)c(=O)n2C
199 to 200 °C | O=Cc1cccc2cc3c(cc12)sc1ccccc13
55 to 60 °C | FC(F)(F)c1cccc2c1SSSSS2
220 to 222 °C | O=C(O)COc1ccc(-c2nn(-c3ccccc3)c3ncccc23)cc1
137 to 139 °C | CCOc1cc([C@@H](CCN(O)C(N)=O)N2Cc3cccc(NC(=O)C(C)C)c3C2=O)ccc1OC
125 to 126 °C | O=[N+]([O-])c1ccccc1OCCN1CCN(c2cc(Cl)nnc2Cl)CC1
190 to 191 °C | CN1CCC(O)(c2ccccc2C(O)c2ccccc2)CC1 (stereo not given)
